# Measurements reported in patent US20250228239A1, “MOLECULES HAVING PESTICIDAL UTILITY, AND INTERMEDIATES, COMPOSITIONS, AND PROCESSES, RELATED THERETO” (priority 2024, published 2025).
# Assays:
# Assay type in all cases: in vivo
# [1] = test system: Cabbage Looper (Trichoplusia ni, TRIPNI); experiment: Bioassays on Cabbage Looper (CL), 128-well diet tray assay; conditions: Trichoplusia ni; Cabbage Looper, Table ABC / ABC-DP rating; read-out: CL rating
# Summary of the method: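 Each of eight wells receives artificial diet treated at 50 μg/cm^2 with the test molecule, then one to five second-instar larvae. Incubation runs five to seven days at 25° C with a 14:10 light-dark cycle under vented covers. Mortality is scored per well as a percentage and averaged.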
# [2] = test system: Beet Armyworm (Spodoptera exigua, LAPHEG); experiment: Bioassays on Beet Armyworm (BAW), 128-well diet tray assay; conditions: Spodoptera exigua; Beet Armyworm, Table ABC / ABC-DP rating; read-out: BAW rating
# Summary of the method: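 One to five second-instar larvae per well on artificial diet surface-treated with 50 μg/cm^2 test molecule (applied in 90:10 acetone-water, dried), eight wells per compound. Trays held vented at 25° C., 14:10 light-dark for five to seven days; percent mortality averaged over the eight wells.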
# [3] = test system: Yellow Fever Mosquito (Aedes aegypti, AEDSAE); conditions: Yellow Fever Mosquito, Table ABC / ABC-DP rating
# Summary of the method: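 Compounds from DMSO master plates (4000 ppm stock) diluted in 90:10 water/acetone, then dispensed into six replicate plates and infested with ~1-day-old Aedes aegypti larvae in liver-powder water. Held covered at room temperature for 3 days; each well scored for larval mortality and graded on a rating scale.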
Compound,pest or weed control at 50 µg/cm2 [1],pest or weed control at 50 µg/cm2 [2],YFM rating [3]
"O=C(NNc1ccncn1)c1cc(NC(=O)[C@H]2[C@H](c3cc(Cl)cc(Cl)c3)C2(Cl)Cl)ccc1Cl (relative stereo) [F2509, trans-2,2-Dichloro-N-(4-chloro-3-(2-(pyrimidin-4-yl)hydrazine-1-carbonyl)phenyl)-3-(3,5-dichlorophenyl)cyclopropane-1-carboxamide]",50 to 100%,50 to 100%,A (80–100)
"CC(=O)NNC(=O)c1cc(NC(=O)[C@H]2[C@H](c3cc(Cl)cc(Cl)c3)C2(Cl)Cl)ccc1Cl (relative stereo) [F2514, trans-N-(3-(2-acetylhydrazine-1-carbonyl)-4-chlorophenyl)-2,2-dichloro-3-(3,5-dichlorophenyl)cyclopropane-1-carboxamide]",50 to 100%,50 to 100%,A (80–100)
"O=C(NNC(=O)C(F)(F)F)c1cc(NC(=O)[C@H]2[C@H](c3cc(Cl)cc(Cl)c3)C2(Cl)Cl)ccc1Cl (relative stereo) [F2515, trans-2,2-Dichloro-N-(4-chloro-3-(2-(2,2,2-trifluoroacetyl)hydrazine-1-carbonyl)phenyl)-3-(3,5-dichlorophenyl)cyclopropane-1-carboxamide]",50 to 100%,50 to 100%,A (80–100)
"N#CC1(C(=O)NNC(=O)c2cc(NC(=O)[C@H]3[C@H](c4cc(Cl)cc(Cl)c4)C3(Cl)Cl)ccc2Cl)CC1 (relative stereo) [F2518, trans-2,2-Dichloro-N-(4-chloro-3-(2-(1-cyanocyclopropane-1-carbonyl)hydrazine-1-carbonyl)phenyl)-3-(3,5-dichlorophenyl)cyclopropane-1-carboxamide]",50 to 100%,50 to 100%,A (80–100)
"O=C(NNC(=O)c1cc(NC(=O)[C@H]2[C@H](c3cc(Cl)cc(Cl)c3)C2(Cl)Cl)ccc1Cl)c1ccccc1 (relative stereo) [F2519, trans-N-(3-(2-Benzoylhydrazine-1-carbonyl)-4-chlorophenyl)-2,2-dichloro-3-(3,5-dichlorophenyl)cyclopropane-1-carboxamide]",50 to 100%,50 to 100%,A (80–100)
"CN(NC(=O)c1cc(NC(=O)[C@H]2[C@H](c3cc(Cl)cc(Cl)c3)C2(Cl)Cl)ccc1Cl)C(=O)OC(C)(C)C (relative stereo) [F2520, trans-tert-Butyl 2-(2-chloro-5-(2,2-dichloro-3-(3,5-dichlorophenyl)cyclopropane-1-carboxamido)benzoyl)-1-methylhydrazine-1-carboxylate]",50 to 100%,50 to 100%,A (80–100)
"CNNC(=O)c1cc(NC(=O)[C@H]2[C@H](c3cc(Cl)cc(Cl)c3)C2(Cl)Cl)ccc1Cl.Cl (relative stereo) [F2521, trans-2,2-Dichloro-N-(4-chloro-3-(2-methylhydrazine-1-carbonyl)phenyl)-3-(3,5-dichlorophenyl)cyclopropane-1-carboxamide hydrochloride]",50 to 100%,50 to 100%,A (80–100)
"CC(=O)N(C)NC(=O)c1cc(NC(=O)[C@H]2[C@H](c3cc(Cl)cc(Cl)c3)C2(Cl)Cl)ccc1Cl (relative stereo) [F2522, trans-N-(3-(2-Acetyl-2-methylhydrazine-1-carbonyl)-4-chlorophenyl)-2,2-dichloro-3-(3,5-dichlorophenyl)cyclopropane-1-carboxamide]",50 to 100%,50 to 100%,A (80–100)
"CN(NC(=O)c1cc(NC(=O)[C@H]2[C@H](c3cc(Cl)cc(Cl)c3)C2(Cl)Cl)ccc1Cl)C(=O)CC1CC1 (relative stereo) [F2524, trans-2,2-Dichloro-N-(4-chloro-3-(2-(2-cyclopropylacetyl)-2-methylhydrazine-1-carbonyl)phenyl)-3-(3,5-dichlorophenyl)cyclopropane-1-carboxamide]",50 to 100%,50 to 100%,A (80–100)
"CN(NC(=O)c1cc(NC(=O)[C@H]2[C@H](c3cc(Cl)cc(Cl)c3)C2(Cl)Cl)ccc1Cl)C(=O)C1(C#N)CC1 (relative stereo) [F2525, trans-2,2-Dichloro-N-(4-chloro-3-(2-(1-cyanocyclopropane-1-carbonyl)-2-methylhydrazine-1-carbonyl)phenyl)-3-(3,5-dichlorophenyl)cyclopropane-1-carboxamide]",50 to 100%,50 to 100%,A (80–100)
"CN(C)CC(=O)NNC(=O)c1cc(NC(=O)[C@H]2[C@H](c3cc(Cl)cc(Cl)c3)C2(Cl)Cl)ccc1Cl (relative stereo) [F2530, trans-2,2-Dichloro-N-(4-chloro-3-(2-(dimethylglycyl)hydrazine-1-carbonyl)phenyl)-3-(3,5-dichlorophenyl)cyclopropane-1-carboxamide]",50 to 100%,50 to 100%,A (80–100)
"O=C(NNC(=O)c1cc(NC(=O)[C@H]2[C@H](c3cc(Cl)cc(Cl)c3)C2(Cl)Cl)ccc1Cl)c1ccccn1 (relative stereo) [F2531, trans-2,2-Dichloro-N-(4-chloro-3-(2-picolinoylhydrazine-1-carbonyl)phenyl)-3-(3,5-dichlorophenyl)cyclopropane-1-carboxamide]",50 to 100%,50 to 100%,A (80–100)
"O=C(NCC1CC1)NNC(=O)c1cc(NC(=O)[C@H]2[C@H](c3cc(Cl)cc(Cl)c3)C2(Cl)Cl)ccc1Cl (relative stereo) [F2538, trans-2-(2-Chloro-5-(2,2-dichloro-3-(3,5-dichlorophenyl)cyclopropane-1-carboxamido)benzoyl)-N-(cyclopropylmethyl)hydrazine-1-carboxamide]",50 to 100%,50 to 100%,A (80–100)
"O=C(NNC(=S)Nc1ccccc1)c1cc(NC(=O)[C@H]2[C@H](c3cc(Cl)cc(Cl)c3)C2(Cl)Cl)ccc1Cl (relative stereo) [F2541, trans-2,2-Dichloro-N-(4-chloro-3-(2-(phenylcarbamothioyl)hydrazine-1-carbonyl)phenyl)-3-(3,5-dichlorophenyl)cyclopropane-1-carboxamide]",50 to 100%,50 to 100%,A (80–100)
"CCOC(=O)NNC(=O)c1cc(NC(=O)[C@H]2[C@H](c3cc(Cl)cc(Cl)c3)C2(Cl)Cl)ccc1Cl (relative stereo) [F2542, trans-ethyl 2-(2-chloro-5-(2,2-dichloro-3-(3,5-dichlorophenyl)cyclopropane-1-carboxamido)benzoyl)hydrazine-1-carboxylate]",50 to 100%,50 to 100%,B (More than 0 – Less than 80)
"O=C(NNC(=O)c1cc(NC(=O)[C@H]2[C@H](c3cc(Cl)cc(Cl)c3)C2(Cl)Cl)ccc1Cl)OC(F)(F)F (relative stereo) [F2543, trans-Trifluoromethyl 2-(2-chloro-5-(2,2-dichloro-3-(3,5-dichlorophenyl)cyclopropane-1-carboxamido)benzoyl)hydrazine-1-carboxylate]",50 to 100%,50 to 100%,A (80–100)
"O=C(NNCc1ccccc1)c1cc(NC(=O)[C@H]2[C@H](c3cc(Cl)cc(Cl)c3)C2(Cl)Cl)ccc1Cl (relative stereo) [F2545, trans-N-(3-(2-Benzylhydrazine-1-carbonyl)-4-chlorophenyl)-2,2-dichloro-3-(3,5-dichlorophenyl)cyclopropane-1-carboxamide]",50 to 100%,50 to 100%,A (80–100)
"O=C(NNCc1ccc(F)cc1F)c1cc(NC(=O)[C@H]2[C@H](c3cc(Cl)cc(Cl)c3)C2(Cl)Cl)ccc1Cl (relative stereo) [F2547, trans-2,2-dichloro-N-(4-chloro-3-(2-(2,4-difluorobenzyl)hydrazine-1-carbonyl)phenyl)-3-(3,5-dichlorophenyl)cyclopropane-1-carboxamide]",50 to 100%,50 to 100%,A (80–100)
"O=C(NNCC1CC1)c1cc(NC(=O)[C@H]2[C@H](c3cc(Cl)cc(Cl)c3)C2(Cl)Cl)ccc1Cl (relative stereo) [F2549, trans-2,2-Dichloro-N-(4-chloro-3-(2-(cyclopropylmethyl)hydrazine-1-carbonyl)phenyl)-3-(3,5-dichlorophenyl)cyclopropane-1-carboxamide]",50 to 100%,50 to 100%,A (80–100)
"O=C(NNCCC(F)(F)F)c1cc(NC(=O)[C@H]2[C@H](c3cc(Cl)cc(Cl)c3)C2(Cl)Cl)ccc1Cl (relative stereo) [F2550, trans-2,2-Dichloro-N-(4-chloro-3-(2-(3,3,3-trifluoropropyl)hydrazine-1-carbonyl)phenyl)-3-(3,5-dichlorophenyl)cyclopropane-1-carboxamide]",50 to 100%,0 to 50%,B (More than 0 – Less than 80)
